Source: patent publication US20050009776A1, “Method of treating atrial fibrillation or atrial flutter” (Aderis Pharmaceuticals, Inc., priority 2003, published 2005)
Marks after values point to notes of the source that are not given here.

Key:
[1] = tested on: atrioventricular (AV) node; experiment: Example 2: electrophysiologic effects on atrioventricular nodal function, 30-minute i.v. infusion; type: in vivo, human
Description: An open-label, sequential group, dose-escalation study was conducted in electrophysiology laboratories at 11 sites in the United States between October 2000 and August 2001. The study protocol was approved by the institutional review board at each site, and patients provided assent and written informed consent prior to enrollment. Male and female patients (18 to 80 years of age), scheduled to undergo an electrophysiological (EP) study for a known or suspected cardiac arrhythmia or a catheter ablation procedure to an area other than the atrioventricular (AV) node, were enrolled in the study. Study procedures were performed after the completion of the scheduled EP procedure and patients were to be in sinus rhythm at study baseline. Exclusion criteria included: greater than first degree AV block, previous ablation of the AV node or AV node slow pathway, presence of an AV Wenckebach cycle length (AV WBCL)≧500 msec, treatment with atropine during the scheduled EP procedure, systolic blood pressure <90 or >180 mmHg, significant hemodynamic instability, ventricular response rate (VRR)<50 bpm, consumption of caffeine-containing food or beverage within the previous 12 hours, treatment with dipyridamole or diltiazem within the respective 5 half lives or theophylline, aminophylline, treatment with a therapeutic adenosine antagonist within the previous 24 hours, heart transplant or myocardial infarction within 30 days, known hypersensitivity to adenosine, known human immunodeficiency virus infection, or clinically significant hematologic, neurologic, hepatic, or renal function impairment.
Each patient received 1 of 6 doses of DTI-0009 (0.25, 1.0, 2.5, 4.0, 10.0, or 25.0 μg/kg) diluted in normal saline or normal saline only (control). Study drug was administered as a 30-minute i.v. infusion at a rate of 1 mL/minute. Patients were enrolled in sequential dose groups, beginning with the lowest active dose group and continuing in increasing dose order; the final group received normal saline. The decision to proceed to the next highest dose group was based on the safety response in the previous dose group.
Electrophysiologic (EP), electrocardiogram (ECG), blood pressure measurements, and blood collection for clinical laboratory measurements were performed at baseline (−10 to 0 minutes), during treatment (between 20 and 30 minutes), and at 10 minutes post-treatment.
EP measurements included ventricular response rate (VRR) during fixed atrial pacing at 250 and 400 msec (VRR 250 and VRR 400), AV WBCL, the interval from atrium to His bundle (AH interval) during sinus rhythm and rapid fixed atrial pacing at 600 msec, AV node effective refractory period (AVNERP), and atrial effective refractory period (AERP). Ventricular response rate during sinus rhythm was derived from the sinus cycle length.
ECG measurements included PR interval, QRS complex duration, and QT interval. Efficacy was based on changes in EP and ECG parameters from baseline to the treatment period and to post treatment. Safety was based on the incidence of adverse events, blood pressure measurements, and clinical laboratory values.
Demographic and baseline information were summarized by dose group. Efficacy variables were summarized overall by dose group at baseline, during treatment, and at post-treatment; mean changes from baseline to treatment period and post-treatment were calculated. Treatment effects (the mean difference between change from baseline for DTI-0009 dose and change from baseline for normal saline) and confidence intervals (95% CI) were estimated from an analysis of covariance (ANCOVA) model with treatment as the main factor and baseline score as a covariate. Regression models were constructed to test for dose responses. Efficacy analyses included all patients who received at least 20 minutes of study drug infusion, had analyzable VRR 250 at baseline and during treatment, and were in sinus rhythm at baseline.

[2] = tested on: A1 receptor / A3 receptor; experiment: Affinity for adenosine A1 receptor relative to A3 receptor; type: binding
Description: (§1) Therefore, DTI-0009 may be capable of terminating episodes of supraventricular arrythymias at doses that have little effect on normal heart rate or blood pressure.

[3] = tested on: A1 receptor / A2A receptor; experiment: Affinity for adenosine A1 receptor relative to A2A receptor; type: binding
Description: as §1

[4] = tested on: adult patients with rapid atrial fibrillation (AF); experiment: Example 1: ventricular rate control in atrial fibrillation, 15-minute i.v. loading dose plus maintenance dose; type: in vivo, human
Description: A randomized, parallel-group, open label, dose-ranging study of DTI-0009 as a 15-minute intravenous loading dose (LD) followed by a maintenance dose (MD) infusion for up to 20 hours in adult patients with rapid atrial fibrillation (AF) (>120 bpm) was conducted. 78 patients were randomized to receive one of three LD regimens. If the ventricular rate (VR) was between 70 and 90 bpm 5 minutes after the end of the LD, then patients were randomized to one of the following three MDs of DTI-0009: 1.75 μg/kg/hr, 2.25 μg/kg/hr, or 2.75 μg/kg/hr. The MD was adjusted to keep the VR within the 70-90 bpm range.
63 of 69 patients completed the LD, 20 patients received a MD, and 18 patients completed at least 3 hours of MD. The VR remained below 100 bpm across all the dosing regimens during the 3-hour MD.

CCNC(=O)[C@H]1O[C@@H](n2cnc3c(NC4CCCC4)ncnc32)[C@H](O)[C@@H]1O [DTI-0009, N^6-cyclopentyl-5′-(N-ethyl)carboxamidoadenosine]
AERP Treatment Effect ([1]; 0.25 μg/kg, during treatment): -9.6 ms
AH interval 600 msec Pacing Treatment Effect ([1]; 0.25 μg/kg, during treatment): 4.85 ms
AH interval Sinus Rhythm Treatment Effect ([1]; 0.25 μg/kg, during treatment): -2.8 ms
AVNERP Treatment Effect ([1]; 0.25 μg/kg, during treatment): -7.03 ms
AERP Treatment Effect ([1]; 1.0 μg/kg, during treatment): -18.3 ms
AH interval 600 msec Pacing Treatment Effect ([1]; 1.0 μg/kg, during treatment): 2.6 ms
AH interval Sinus Rhythm Treatment Effect ([1]; 1.0 μg/kg, during treatment): -0.1 ms
AVNERP Treatment Effect ([1]; 1.0 μg/kg, during treatment): -1.0 ms
PR interval treatment effect ([1]; 1.0 μg/kg, during treatment, p=0.008): -42.2 ms
PR interval treatment effect ([1]; 1.0 μg/kg, post-treatment, p=0.023): -34.5 ms
AERP Treatment Effect ([1]; 2.5 μg/kg, during treatment): -7.3 ms
AH interval 600 msec Pacing Treatment Effect ([1]; 2.5 μg/kg, during treatment): 18.0 ms
AH interval Sinus Rhythm Treatment Effect ([1]; 2.5 μg/kg, during treatment): 7.1 ms
AVNERP Treatment Effect ([1]; 2.5 μg/kg, during treatment): 16.0 ms
AERP Treatment Effect ([1]; 4.0 μg/kg, during treatment): 0.6 ms
AH interval 600 msec Pacing Treatment Effect ([1]; 4.0 μg/kg, during treatment): 18.7 ms
AH interval Sinus Rhythm Treatment Effect ([1]; 4.0 μg/kg, during treatment): 7.2 ms
AVNERP Treatment Effect ([1]; 4.0 μg/kg, during treatment): 82.4 ms
VRR 250 treatment effect ([1]; 4.0 μg/kg, during treatment, CI −51.0, −8.4, p=0.008): −29.7 bpm
AERP Treatment Effect ([1]; 10.0 μg/kg, during treatment): −22.0* msec
AH interval 600 msec Pacing Treatment Effect ([1]; 10.0 μg/kg, during treatment): 57.9*** msec
AH interval Sinus Rhythm Treatment Effect ([1]; 10.0 μg/kg, during treatment): 21.1** msec
AVNERP Treatment Effect ([1]; 10.0 μg/kg, during treatment): 231.5*** msec
VRR 250 treatment effect ([1]; 10.0 μg/kg, during treatment, CI −68.3, −26.4, p=0.001): −47.4 bpm
PR interval treatment effect ([1]; 10.0 μg/kg, post-treatment, p=0.007): 42.9 ms
AERP Treatment Effect ([1]; 25.0 μg/kg, during treatment): 4.0 ms
AH interval 600 msec Pacing Treatment Effect ([1]; 25.0 μg/kg, during treatment): 64.8** msec
AH interval Sinus Rhythm Treatment Effect ([1]; 25.0 μg/kg, during treatment): 14.2 ms
AVNERP Treatment Effect ([1]; 25.0 μg/kg, during treatment): 198.3* msec
VRR 250 treatment effect ([1]; 25.0 μg/kg, during treatment, CI −85.7, −18.5, p=0.004): −52.1 bpm
VRR 250 treatment effect at lower doses ([1]; 0.25, 1.0, and 2.5 μg/kg): no statistically significant treatment effect
QRS duration or QT interval ([1]; during the study): no statistically significant changes
AV WBCL treatment effect ([1]; during treatment, 10.0 and 25.0 μg/kg (p=0.001, p=0.035)): statistically significant treatment effects (increases from baseline)
AV WBCL treatment effect ([1]; post-treatment, 4.0, 10.0 and 25.0 μg/kg (p=0.013, p=0.001, p=0.001)): statistically significant treatment effects (increases from baseline)
affinity for the A1 receptor higher than for the A3 receptor [2]: 11 fold
affinity for the A1 receptor higher than for the A2A receptor [3]: 340 fold
ventricular rate (VR) ([4]; LD 2.5 μg/kg, 5 min, Baseline 143): 129^a bpm
ventricular rate (VR) ([4]; LD 2.5 μg/kg, 10 min, Baseline 143): 117^a bpm
ventricular rate (VR) ([4]; LD 2.5 μg/kg, 15 min, Baseline 143): 113^b bpm
ventricular rate (VR) ([4]; LD 2.5 μg/kg, 20 min, Baseline 143): 115^b bpm
ventricular rate (VR) ([4]; LD 5.0 μg/kg, 5 min, Baseline 138): 115^b bpm
ventricular rate (VR) ([4]; LD 5.0 μg/kg, 10 min, Baseline 138): 104^b bpm
ventricular rate (VR) ([4]; LD 5.0 μg/kg, 15 min, Baseline 138): 108^b bpm
ventricular rate (VR) ([4]; LD 5.0 μg/kg, 20 min, Baseline 138): 111^b bpm
ventricular rate (VR) ([4]; LD 7.5 μg/kg, 5 min, Baseline 143): 110^b,c bpm
ventricular rate (VR) ([4]; LD 7.5 μg/kg, 10 min, Baseline 143): 99^b,c bpm
ventricular rate (VR) ([4]; LD 7.5 μg/kg, 15 min, Baseline 143): 105^b bpm
ventricular rate (VR) ([4]; LD 7.5 μg/kg, 20 min, Baseline 143): 106^b bpm
VR during maintenance dose ([4]; all dosing regimens, 3-hour MD): below 100 bpm
systolic and diastolic blood pressures ([4]; during the LD): did not change significantly
